# Several values for one entry are separate records, joined by “and”; a condition that tells them apart may be missing. Equal values may be shown once.
# Experiments:
# [1] = system: Swiss Albino Mice; test: 28-day chronic toxicity study of ibuprofen esters; settings: 28 days
# Excerpt: Randomization was done by the method of stratified randomization procedure using SAS software program (Version 8.2) with stratification by bodyweight.
# The duration of dosing was 28 days. All the animals were daily tested until the end of the study for the presence/absence of clinical symptoms of toxicity. Cage side observations included changes in the skin, eyes, posture, gait, respiration and behavior pattern. The incidence of twitching, tremors, convulsions, salivation, diarrhea and death if any, were also recorded.
# [2] = system: male albino mice (Swiss strain); test: Acetylcholine induced abdominal constriction (writhe) method; assay type: in vivo, mouse; settings: for Number of animals showing absence of single writhe (number of animals per dose = 10), One hour after dosing / Number of animals showing absence of single writhe (number of animals per dose = 10), Three hours after dosing: gavage
# Protocol: Ibuprofen (racemic mixture) and ibuprofen (S)-(+) served as reference controls.
# The study was conducted at two dose levels viz. 50 mg and 100 mg/kg body weight along with a vehicle control group. At each dose level 10 animals were used. All the doses were expressed as ibuprofen molar equivalents. The doses used as well as the molar equivalents are presented below.
# The efficacy in terms of antagonizing effect on acetylcholine induced single writhe at two dose levels—50.0 and 100.0 mg/kg for the three formulations and reference controls are presented below.
# [3] = system: rats; test: Hypolipidemic property, blood triglycerides in rats on high sugar diet; assay type: in vivo, rat; settings: for anti-hyperlipidemic properties: compared with Fenofibrate; for Triglycerides, Day 7 / Triglycerides, Day zero / Triglycerides, Day 14: individual animals; for Triglycerides, Day 7: after 1 week high sugar diet, before drug; for Triglycerides, Day zero: before diet and drug; for Triglycerides, Day 14: drug day 7-14
# Protocol: Rats were checked for time zero triglyceride level in blood. Then the rats were set on high sugar diet, such as 30% sucrose in water for 1 week. Then at the end of 1 week, rats were tested for triglycerides, and were put on normal diet. From day 7-14 the rats were administered either test or control drug. Triglycerides were again tested on the 14th day in rat blood.
# [4] = system: albino mice (Swiss strain); test: 14 day repeated dose toxicity study, intravenous route, propofol esters
# Protocol: by conducting a 14 day repeated dose toxicity study through intravenous route using albino mice as test system.
# Propofol and its derivatives above were administered to albino mice (Swiss strain), through intravenous route daily for a period of 14 days using sterile sodium chloride solution as vehicle. The study was conducted at one dose level only along with a vehicle control group as per the recommendation of the Sponsor.
# The doses were selected as per the recommendation of the Sponsor. The test doses are expressed as Propofol molar equivalents.
# [5] = system: albino mouse; test: Anesthetic effect in male albino mice, righting reflex as index; settings: low, intermediate, high dose
# Excerpt: However the doses of low, intermediate and high for different formulations and reference control were different.
# The different doses for each formulation and reference control were selected based on the recommendation of Sponsor. All the doses were expressed as propofol molar equivalents.
# [6] = 50.0 mg/kg in terms of Ibuprofen
# [7] = 100.0 mg/kg in terms of Ibuprofen
Compound,"Number of animals showing absence of single writhe (number of animals per dose = 10), One hour after dosing [2, 6]","Number of animals showing absence of single writhe (number of animals per dose = 10), Three hours after dosing [2, 6]","Number of animals showing absence of single writhe (number of animals per dose = 10), One hour after dosing [2, 7]","Number of animals showing absence of single writhe (number of animals per dose = 10), Three hours after dosing [2, 7]",% Change From day 0 ([3]; Dose 25 mg/kg),% Change from day 7 ([3]; Dose 25 mg/kg),Absolute Change from day 0 ([3]; Dose 25 mg/kg),Absolute Change from day 7 ([3]; Dose 25 mg/kg),% Change From day 0 ([3]; Dose 50 mg/kg),% Change from day 7 ([3]; Dose 50 mg/kg),Absolute Change from day 0 ([3]; Dose 50 mg/kg),Absolute Change from day 7 ([3]; Dose 50 mg/kg),% Change From day 0 ([3]; Dose 100 mg/kg),% Change from day 7 ([3]; Dose 100 mg/kg),Absolute Change from day 0 ([3]; Dose 100 mg/kg),Absolute Change from day 7 ([3]; Dose 100 mg/kg),also measured
"CC(C)Cc1ccc(C(C)C(=O)O[C@H]2CN[C@H](C(=O)O)C2)cc1 (mixture of isomers) [(±)-Ibuprofen-L-hydroxyproline ester, 4(R)-[2-(4-Isobutyl-phenyl)-propionyloxy]-pyrrolidine-2(S)-carboxylic acid] [listing 1 of 2 here]",–,–,–,–,–,–,–,–,–,–,–,–,–,–,–,–,No of animals survived ([1]; 10 animals per group): 9; animals that died ([1]; both sexes): 10%; Mortality ([1]; Female): 1/5; Mortality ([1]; Male): Nil; Average Change In body Weight ([1]; surviving animals): 1.43 gms; Percentage Change of body weight ([1]; surviving animals): 5.75%
"CC(C)Cc1ccc(C(C)C(=O)OC[C@H](N)C(=O)O)cc1.Cl (mixture of isomers) [(±)-Ibuprofen-L-serine ester, 2(S)-Amino-3-[2(R,S)-(4-isobutylphenyl)-propionyloxy]-propionic acid, hydrochloride]",4,2,6,4,–,–,–,–,–,–,–,–,–,–,–,–,–
"CC(C)Cc1ccc(C(C)C(=O)O[C@H]2CN[C@H](C(=O)O)C2)cc1 (mixture of isomers) [(±)-Ibuprofen-L-hydroxyproline ester, 4(R)-[2-(4-Isobutyl-phenyl)-propionyloxy]-pyrrolidine-2(S)-carboxylic acid] [listing 2 of 2 here]",5,4,7,7,–,–,–,–,–,–,–,–,–,–,–,–,"antagonizing the acetylcholine induced writhe, clinical observation ([2]; compared to other formulations, Ibuprofen (racemic) and Ibuprofen (S)-(+)): more effective in antagonizing the acetylcholine induced writhe"
"CC(C)(Oc1ccc(C(=O)c2ccc(Cl)cc2)cc1)C(=O)OC1CN[C@H](C(=O)O)C1.Cl (stereo partly drawn) [Fen-HP Ester, L-hydroxyproline-fenofibric acid ester, hydrochloride]",–,–,–,–,−32.92%,−59.45%,−16,−47.8,−49.31%,−65.80%,−35.8,−70.8,−7.52%,−72.82%,−3.4,−112,–
"C[C@@H](OC(=O)C(C)(C)Oc1ccc(C(=O)c2ccc(Cl)cc2)cc1)[C@H](N)C(=O)O.Cl [Fen-T Ester, L-threonine-fenofibric acid ester, hydrochloride]",–,–,–,–,−23.21%,−37.68%,−18.2,−36.4,−35.00%,−63.71%,−23.8,−77.6,−68.45%,−75.04%,−63.8,−88.4,"anti-hyperlipidemic properties ([3]; listed as Fenofibric Acid-L-Threonine ester, hydrochloride): overall superior anti-hyperlipidemic properties; anti-hyperlipidemic properties ([3]; listed as L-Threonine ester, hydrochloride): dose dependent decrease in triglycerides"
"CC(C)OC(=O)C(C)(C)Oc1ccc(C(=O)c2ccc(Cl)cc2)cc1 [Fenofibrate, reference compound]",–,–,–,–,−15.21%,−45.86%,−10.8,−51,−22.95%,−66.06%,−13.4,−87.6,−61.26%,−73.51%,−40.8,−71.6,"Triglycerides, Day 7 ([3]; 50 mg/kg group): 150 mg/dL; Triglycerides, Day zero ([3]; 50 mg/kg group): 95 mg/dL and 92 mg/dL and 80 mg/dL; Triglycerides, Day 14 ([3]; 50 mg/kg): 101 mg/dL and 76 mg/dL and 73 mg/dL; Triglycerides, Day zero ([3]; 100 mg/kg group): 110 mg/dL and 115 mg/dL and 96 mg/dL; Triglycerides, Day 14 ([3]; 100 mg/kg): 62 mg/dL and 69 mg/dL and 93 mg/dL; Triglycerides, Day 7 ([3]; 200 mg/kg group): 90 mg/dL and 106 mg/dL and 125 mg/dL; Triglycerides, Day zero ([3]; 200 mg/kg group): 144 mg/dL and 56 mg/dL and 58 mg/dL; Triglycerides, Day 14 ([3]; 200 mg/kg): 48 mg/dL and 51 mg/dL and 38 mg/dL"
"CC(C)Cc1ccc([C@H](C)C(=O)O)cc1 [Ibuprofen (S)-(+), reference compound]",5,1,6,6,–,–,–,–,–,–,–,–,–,–,–,–,–
"CC(C)(Oc1ccc(C(=O)c2ccc(Cl)cc2)cc1)C(=O)OC[C@H](N)C(=O)O.Cl [L-Serine Ester of Fenofibric Acid, L-serine-fenofibric acid ester, hydrochloride]",–,–,–,–,−61.64%,−72.82%,−54,−90,−44.10%,−67.90%,−31.4,−84.2,−33.23%,−63.27%,−20.8,−72,"Triglycerides, Day 7 ([3]; 50 mg/kg group, hydrochloride): 148 mg/dL and 145 mg/dL and 127 mg/dL; Triglycerides, Day zero ([3]; 50 mg/kg group, hydrochloride): 88 mg/dL and 94 mg/dL and 100 mg/dL; Triglycerides, Day 14 ([3]; 50 mg/kg, hydrochloride): 86 mg/dl (2×) and 73 mg/dl; Triglycerides, Day 7 ([3]; 100 mg/kg group, hydrochloride): 100 mg/dL and 183 mg/dL; Triglycerides, Day zero ([3]; 100 mg/kg group, hydrochloride): 109 mg/dL and 129 mg/dL and 71 mg/dL; Triglycerides, Day 14 ([3]; 100 mg/kg, hydrochloride): 46 mg/dL and 69 mg/dL and 47 mg/dL; Triglycerides, Day 7 ([3]; 200 mg/kg group, hydrochloride): 240 mg/dL and 158 mg/dL and 77 mg/dL; Triglycerides, Day zero ([3]; 200 mg/kg group, hydrochloride): 74 mg/dL and 81 mg/dL and 42 mg/dL; Triglycerides, Day 14 ([3]; 200 mg/kg, hydrochloride): 83 mg/dL and 61 mg/dL and 46 mg/dL"
"CC(C)c1cccc(C(C)C)c1O [Propofol injection, 2,6-diisopropylphenol, reference compound]",–,–,–,–,–,–,–,–,–,–,–,–,–,–,–,–,"feed intake ([4]; 14 days): normal and comparable to that of vehicle control group; animals exhibiting clinical symptoms of toxicity ([4]; IV daily 14 days): None of the animals; body weight gain ([4]; IV daily 14 days, compared to vehicle control): normal and comparable to that of vehicle control group of animals; dose response relation (statistical analysis) [5]: statistically significant and clearly evident"
